Six compounds from patent US10758513B2, “Modulators of mitochondrial protein import” (THE REGENTS OF THE UNIVERSITY OF CALIFORNIA, priority 2011, dated 2020) can be followed below.

One data set has as its target T1, Erv1 (Saccharomyces cerevisiae, UniProt P27882).
T1 construct: made in house
T1 sequence (P27882 1-189): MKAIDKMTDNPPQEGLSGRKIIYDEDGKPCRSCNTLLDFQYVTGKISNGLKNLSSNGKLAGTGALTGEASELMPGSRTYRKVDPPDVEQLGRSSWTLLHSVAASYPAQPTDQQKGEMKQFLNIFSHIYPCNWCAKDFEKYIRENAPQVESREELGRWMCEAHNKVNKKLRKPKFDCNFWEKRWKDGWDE
Briefly: In vitro Erv1 oxidase activity, Amplex Red-HRP assay. Format: biochemical, yeast. The settings on record: 100 μM.

Data set [1] deals with tim10-1 tim9S mitochondria. Briefly: In vitro import of radiolabeled precursors into tim10-1 tim9S mitochondria. The data set is classed as biochemical, yeast. To be noted: SAR study. As to the method:
Prior to import into purified mitochondria, ^35S-methionine and cysteine labeled proteins were generated with TNT Quick Coupled Transcription/Translation kits (Promega) and plasmids carrying the gene of interest. Transcription of genes was driven by either a T7 or SP6 promoter. Import reactions were conducted according to established methods. After frozen mitochondria aliquots were thawed and added to the import buffer at a final concentration of 100 μg/mL, drug or DMSO vehicle was added as indicated. A final vehicle concentration of 1% was used in all experiments. Following 15 minute incubation at 25° C., import reactions were initiated by the addition of […] of translation mix. Aliquots were removed at intervals during the reaction timecourse and import was terminated with either cold buffer, 25 μg/mL trypsin, or a combination of both. If trypsin was added to digest unimported precursor protein, soybean trypsin inhibitor (STI) was subsequently added in excess after 15 minute incubation on ice. After a final recovery of by centrifugation (8,000×g, 5 minutes), mitochondria were disrupted in Laemmli sample buffer. Imports of membrane proteins (AAC, PiC, Tom40, Tim22, and Tim23) included a carbonate extraction step to remove proteins that had not inserted into the membrane (Koehler C M, et al. (1998), Science 279:369-373). Samples from import reaction time points were resolved by SDS polyacrylamide gel electrophoresis (SDSPAGE) and gels were dried prior to exposing to film.

The subject of data set [2] is tim10-1 tim9S mitochondria. In words: Membrane potential with rhodamine 123. Format: biochemical, yeast. The settings on record: 25 μM MitoBloCK-1; CCCP as control. As to the method:
Membrane potential measurement assays were conducted with a SPEX spectrofluorometer system (HORIBA Jobin Yvon) with a magnetically stirred cuvette held at 25° C. The quenching of rhodamine 123 fluorescence (Em, =530 nm and Ex=485 nm) was used as previously described (9) to detect changes in mitochondrial membrane potential. Purified tim10-1 tim9S mitochondrial aliquots were thawed and resuspended in respiration buffer (0.65 M mannitol, 0.3 mM EGTA, 3 mm tris-phosphate, 10 mM tris-maleate, pH 6.75). Trials were started by adding 100 nM of rhodamine 123 to respiration buffer. After a period of signal stabilization, mitochondria were added to a concentration of 100 μg/mL. Either drug or DMSO was then added to a final vehicle concentration of 1% following the establishment of baseline quenched fluorescence. Finally, mitochondria were uncoupled with 3 μM CCCP.

The next data set concerns WT mitochondria. In words: Respiration of WT mitochondria with NADH (oxygen electrode). Format: biochemical, yeast. The settings on record: 25 μM MitoBloCK-6; CCCP control. The method, then: Oxygen consumption of WT mitochondria was measured using methods previously described (Claypool et al., 2008a). Briefly, purified WT mitochondria (25 mg/ml) were thawed on ice and tested within 2 hours. Oxygen consumption assays were performed with a Clark-type oxygen electrode in a stirred thermostatically controlled 1.5-ml chamber at 25° C. (Oxytherm, Hansatech). […] Consumption rate was monitored for approximately 2 min. […] Consumption rate was monitored for approximately 3 mins. MitoBloCK-6, SAR compounds, or DMSO was then added and respiration measured for another 3 mins. Uncoupled respiration was achieved as described above.

Data set [3] concerns tim10-1 tim9S mitochondria. Briefly: Respiration (oxygen electrode) of tim10-1 tim9S mitochondria. Format: biochemical, yeast. The settings on record: NADH; 25 μM MitoBloCK-1; CCCP as control. As to the method: Oxygen consumption of […] mitochondria was measured using methods previously described (8). Briefly, purified […] mitochondria aliquots (25 mg/mL) were thawed on ice and tested within 2 hours. A Clark-type oxygen electrode in a stirred, thermostatically controlled 1.5-ml chamber at 25° C. (Oxytherm; Hansatech) facilitated measurement. […] Consumption rate was monitored for approximately 2 min.

Data set [4] deals with HeLa cells. In words: Mitochondrial morphology in HeLa cells. Format: cell-based. To be noted: 50 μM 12-16 h, up to 100 μM, 20 μM CCCP control. The method, then: (A) HeLa cells were transiently transfected with Su9-EGFP. Following transfection, cells were treated for 12 hr with 50 μM MitoBloCK-6 or control 1% DMSO. As a positive control, cells were incubated with 20 μM CCCP to dissipate the membrane potential. Mitochondria were also stained with 10 μM MitoTracker Red. Mitochondrial morphology was assessed by fluorescence microscopy and the Mitotracker Red and GFP channels were superimposed (Merge). (B) The effect of MitoBloCK-6 on the viability of HeLa cells was assessed with a MTT-based toxicology assay. Cultured cells were treated for 12-16 hr with DMSO or 50 μM and 100 μM MitoBloCK-6. Bars display mean cell viability where 100% was defined as signal from untreated samples. Error bars display standard error of the mean (n=5). (C) The release of cyt c was investigated. Cells were treated with 1% DMSO or 50 μM MitoBloCK-6 for 12-16 hr and fractionated into mitochondrial (M) and cytosolic (C) fractions. Release of mitochondrial proteins was assessed by immunoblot analysis with antibodies against cyt c, Complex V (ATP synthase subunit alpha), pyruvate dehydrogenase (PDH), and cytosolic GAPDH. Treatment with 1 μM staurosporine for 4 hr induced apoptosis and was included as a positive control.
For microscopy experiments, HeLa or HEK293 cells were transiently transfected with Su9-EGFP (Lipofectamine, Invitrogen) at 80% confluency. […]

For the next data set, the target named is T2, succinate dehydrogenase (Saccharomyces cerevisiae, UniProt Q00711).
T2 construct: endogenous in cells; host or cells: mitochondria isolated from WT yeast
T2 sequence (Q00711 29-640): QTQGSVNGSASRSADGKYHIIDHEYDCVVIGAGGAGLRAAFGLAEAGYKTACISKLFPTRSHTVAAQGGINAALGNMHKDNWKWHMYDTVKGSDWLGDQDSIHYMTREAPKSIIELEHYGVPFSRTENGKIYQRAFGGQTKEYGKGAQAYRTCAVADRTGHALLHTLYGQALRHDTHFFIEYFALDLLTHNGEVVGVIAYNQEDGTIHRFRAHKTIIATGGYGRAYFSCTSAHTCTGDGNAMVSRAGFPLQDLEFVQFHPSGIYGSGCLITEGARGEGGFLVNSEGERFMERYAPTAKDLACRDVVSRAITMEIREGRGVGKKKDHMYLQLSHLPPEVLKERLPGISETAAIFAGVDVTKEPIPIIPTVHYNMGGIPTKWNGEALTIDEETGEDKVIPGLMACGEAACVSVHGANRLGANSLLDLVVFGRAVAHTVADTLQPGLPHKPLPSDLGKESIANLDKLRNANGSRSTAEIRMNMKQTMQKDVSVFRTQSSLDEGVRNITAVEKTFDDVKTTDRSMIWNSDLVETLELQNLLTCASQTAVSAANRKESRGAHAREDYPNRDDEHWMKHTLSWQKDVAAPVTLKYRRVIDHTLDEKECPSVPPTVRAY
T2 sequence (P21801 21-266 partner): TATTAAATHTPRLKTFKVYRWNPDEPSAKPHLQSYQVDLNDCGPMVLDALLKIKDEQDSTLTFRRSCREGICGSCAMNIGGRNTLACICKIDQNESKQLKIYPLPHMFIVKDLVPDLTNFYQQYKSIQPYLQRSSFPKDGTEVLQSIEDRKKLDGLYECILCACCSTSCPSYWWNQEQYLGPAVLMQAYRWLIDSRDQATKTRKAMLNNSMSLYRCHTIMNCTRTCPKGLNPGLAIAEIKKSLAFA
T2 sequence (P33421 51-198 partner): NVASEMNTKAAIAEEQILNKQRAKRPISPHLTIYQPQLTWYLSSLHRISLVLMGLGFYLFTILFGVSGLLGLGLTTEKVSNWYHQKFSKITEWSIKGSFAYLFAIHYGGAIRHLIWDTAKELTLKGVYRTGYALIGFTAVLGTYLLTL
T2 sequence (P37298 32-181 partner): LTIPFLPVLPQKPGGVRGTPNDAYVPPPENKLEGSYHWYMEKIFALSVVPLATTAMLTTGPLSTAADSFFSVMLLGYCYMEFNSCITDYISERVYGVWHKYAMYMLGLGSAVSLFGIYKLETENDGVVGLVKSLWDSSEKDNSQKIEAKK
Briefly: Succinate dehydrogenase activity in WT mitochondria (oxygen electrode). Format: biochemical, yeast. The settings on record: 25 or 50 μM MitoBloCK-6; 20 mM malonate control. The method, then:
(A) 160 μM insulin was reacted with 3 units of PDI in the presence of buffer, 1 mM bacitracin, or MitoBloCK-6 (MB-6). Reduction of insulin chains was initiated by the addition of DTT. The samples were incubated for 30 min at room temperature and then the turbidity was measured at a wavelength of 630 nm using a Bio-Tek plate-reader. (B) Succinate dehydrogenase activity was measured in WT mitochondria using a Clark-type oxygen electrode. Respiration was initiated with 10 mM succinate and, when steady-state respiration was established, 25 or 50 μM MitoBloCK-6, 50 μM ES-1, 50 μM ES-2, or 1% DMSO was added. Controls included 20 mM malonate that inhibits succinate dehydrogenase activity and CCCP that uncouples electron transport. The rate is reported as nmol O2 consumed/sec.
Oxygen consumption of WT mitochondria was measured using methods previously described (Claypool et al., 2008a). Briefly, purified WT mitochondria (25 mg/ml) were thawed on ice and tested within 2 hours. […] Consumption rate was monitored for approximately 2 min. MitoBloCK-6 or DMSO was then added to a final vehicle concentration of 1% and respiration was measured for another approximately 1.5 min. […] Consumption rate was monitored for approximately 3 mins. MitoBloCK-6, SAR compounds, or DMSO was then added and respiration measured for another 3 mins. […]

Data set [5] deals with HeLa cells. Briefly: Cyt c release assay by cell fractionation in HeLa cells. The data set is classed as cell-based. The settings on record: 50 μM MitoBloCK-6 12-16 h, 1 μM staurosporine 4 h. As to the method:
For cyt c release assays, a cell fractionation kit (MitoSciences) was used. Briefly, HeLa or HEK293 cells were grown in 10 cm^2 dishes to 80% confluency and then cells were treated with DMSO or MitoBloCK-6 in complete medium for 12-16 h. […] Cells were fractionated to obtain cytosolic and mitochondrial fractions; 100 μg of each fraction was analyzed by SDS-PAGE. Blots were probed with ApoTrack cyt c apoptosis antibody cocktail (MitoSciences).

The next data set relates to zebrafish embryos. In words: Zebrafish embryo development. The data set is classed as in vivo. The method, then:
Zebrafish used for o-dianisidine staining of red blood cells in DMSO and MitoBloCK-6 treated fish were albino lines generated from crosses of TL and TU fish. Line AB were injected with the ALR morpholino. Lines were maintained in a 14-hr light/10-hr dark cycle and mated for one hour to obtain synchronized embryonic development. […] Following treatment, embryos were imaged using a Leica MZ16F fluorescent stereoscope (TexasRed filter set) at 5× magnification. […] Embryos were allowed to mature to 2 dpf and then imaged like the MitoBloCK-6 treated embryos; embryos were imaged at day 2 because of concerns with morpholino dilution. Images were resized to 300 dpi without resampling using Adobe Photoshop software.

Protocol for Erv1: The primary chemical screen used fresh recombinant Erv1 (in buffer 30 mM Hepes, pH 7.4, 100 mM NaCl, 1 mM EDTA) at a concentration of 10 μM, which was expressed as described previously. […] A Biomek FX (Beckman Coulter) was used to pin transfer 0.5 μl of compound from 1 mM stock or DMSO to respective wells. Approximate screening
concentration was 12.5 μM. After completed compound transfer, all plates were incubated at 25° C. in a humidified incubator for 1 hour. A Titertek multidrop was used to dispense 15 μl of Amplex Red-horseradish peroxidase (HRP) (Sigma) mix into all wells of the 384-well plate. The final concentration of Amplex Red and HRP were 46 μM and 0.092 U/ml, respectively. The Amplex Red-HRP solution was shielded from light during the entire experiment. The plates were incubated for an additional 10 min and then 15 μl of the substrate DTT (20 μM) was added to initiate the reduction of 02 to H2O2. […] Plates were then read at an endpoint using an excitation wavelength of 545 nm and an emission wavelength of 590 nm. […]
H2O2 production was measured using a standard fluorometric assay with Amplex Red and horseradish peroxidase (HRP). […] Fluorescence intensity was measured and reactions that were inhibited by more than 50% were picked as potential Erv1 inhibitors and selected for secondary analysis.

Consider `O=Cc1cc(Cl)cc(Cl)c1O` [3,5-dichlorosalicylaldehyde, reference compound], for which, on Erv1, the Erv1 activity entry was “did not inhibit Erv1 activity”.
Turning to `Cc1ccc2c(c1)C1CCC/C(=N\NC(N)=S)C1N2C` (stereo not shown) [Analog B], the “inhibition of import of AAC by analogs” value in data set [1] was “Analog D was the only compound to inhibit import of AAC”.
As for `N#CC(C#N)=NNc1cccc(Cl)c1` [CCCP, carbonyl cyanide m-chlorophenylhydrazone, reference compound], the “rhodamine 123 fluorescence (membrane potential)” value in data set [2] was “sharp increase in fluorescence”. For the same compound, in the data set with WT mitochondria, the “oxygen consumption rate (NADH respiration)” value is “respiration increased drastically”. Besides, in [3], the rate of respiration result is “respiration increased drastically”. For the same compound, the “mitochondrial network / morphology” value in the data set with HeLa cells [4] is “caused the mitochondrial network to collapse around the nucleus”.
Regarding `O=C(O)CC(=O)O` [malonate], the “succinate dehydrogenase activity (oxygen consumption rate with succinate)” value at succinate dehydrogenase is recorded as “disrupted”.
`CN[C@@H]1C[C@H]2O[C@@](C)([C@@H]1OC)n1c3ccccc3c3c4c(c5c6ccccc6n2c5c31)C(=O)NC4` [staurosporine]: the cyt c release result in the data set on HeLa cells [5] is reported as “showed cyt c release”.
Turning to “ALR morpholino: ATG morpholino targeted to zebrafish ALR protein (GAGGGTTGCCAGATCTCTGTTAAAT) (all phosphorodiamidate morpholino (PMO)) [reference compound]”, in the data set on zebrafish embryos (4 ng injected in 1-cell embryos), the “phenotypes of morpholino-injected embryos” value is “identical to that of MitoBlock-6 exposure”. In the data set on zebrafish embryos (embryos treated with MitoBloCK-6 or ALR morpholino), this compound returned a decreased heart rate of 25%.
